Source: ChEMBL document CHEMBL1130602 (Bioorg Med Chem Lett, 1998)

How the values were obtained:
[1] = target: D(2) dopamine receptor (Homo sapiens) (UniProt P14416); assay: Selectivity ratio of Ki of D2 receptor to that of D3 receptor
[2] = target: Serotonin 2 (5-HT2) receptor (Rattus norvegicus, UniProt P30994+P08909+P14842); assay: Compound was evaluated for binding affinity against 5-hydroxytryptamine 2 receptor from rat; type: protein assay
[3] = target: T1, Adrenergic receptor alpha-1 (Rattus norvegicus, UniProt P15823+P23944+P43140); assay: Compound was evaluated for binding affinity against Alpha-1 adrenergic receptor from rat; type: protein assay
T1 sequence (P15823 whole entry): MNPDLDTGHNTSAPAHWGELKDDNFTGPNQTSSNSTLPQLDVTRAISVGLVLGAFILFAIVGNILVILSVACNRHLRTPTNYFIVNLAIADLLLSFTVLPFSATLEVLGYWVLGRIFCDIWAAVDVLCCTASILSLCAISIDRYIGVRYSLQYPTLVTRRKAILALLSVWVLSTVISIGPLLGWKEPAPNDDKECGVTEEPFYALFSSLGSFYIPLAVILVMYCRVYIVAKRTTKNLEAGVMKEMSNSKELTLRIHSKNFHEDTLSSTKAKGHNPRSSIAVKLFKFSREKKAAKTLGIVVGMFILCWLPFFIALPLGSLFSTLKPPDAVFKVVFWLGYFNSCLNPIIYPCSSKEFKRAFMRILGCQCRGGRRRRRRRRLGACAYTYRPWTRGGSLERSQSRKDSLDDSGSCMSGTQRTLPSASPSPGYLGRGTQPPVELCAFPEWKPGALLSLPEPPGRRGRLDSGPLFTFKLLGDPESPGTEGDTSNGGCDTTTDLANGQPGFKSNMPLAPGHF
T1 sequence (P23944 whole entry): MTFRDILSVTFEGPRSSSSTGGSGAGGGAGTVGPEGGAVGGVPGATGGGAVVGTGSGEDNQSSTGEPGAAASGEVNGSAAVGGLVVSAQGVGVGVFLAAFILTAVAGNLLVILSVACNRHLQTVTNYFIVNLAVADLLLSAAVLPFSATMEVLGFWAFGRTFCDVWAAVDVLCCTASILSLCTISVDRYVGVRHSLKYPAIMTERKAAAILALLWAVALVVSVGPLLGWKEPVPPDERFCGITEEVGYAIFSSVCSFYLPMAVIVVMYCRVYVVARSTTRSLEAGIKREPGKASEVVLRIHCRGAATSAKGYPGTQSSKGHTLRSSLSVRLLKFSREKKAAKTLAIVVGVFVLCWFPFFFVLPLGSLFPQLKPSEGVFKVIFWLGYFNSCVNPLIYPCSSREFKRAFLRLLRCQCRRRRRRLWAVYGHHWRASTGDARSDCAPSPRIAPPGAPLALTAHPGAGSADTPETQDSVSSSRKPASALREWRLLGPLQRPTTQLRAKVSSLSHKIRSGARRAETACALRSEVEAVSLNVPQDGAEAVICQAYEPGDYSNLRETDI
T1 sequence (P43140 whole entry): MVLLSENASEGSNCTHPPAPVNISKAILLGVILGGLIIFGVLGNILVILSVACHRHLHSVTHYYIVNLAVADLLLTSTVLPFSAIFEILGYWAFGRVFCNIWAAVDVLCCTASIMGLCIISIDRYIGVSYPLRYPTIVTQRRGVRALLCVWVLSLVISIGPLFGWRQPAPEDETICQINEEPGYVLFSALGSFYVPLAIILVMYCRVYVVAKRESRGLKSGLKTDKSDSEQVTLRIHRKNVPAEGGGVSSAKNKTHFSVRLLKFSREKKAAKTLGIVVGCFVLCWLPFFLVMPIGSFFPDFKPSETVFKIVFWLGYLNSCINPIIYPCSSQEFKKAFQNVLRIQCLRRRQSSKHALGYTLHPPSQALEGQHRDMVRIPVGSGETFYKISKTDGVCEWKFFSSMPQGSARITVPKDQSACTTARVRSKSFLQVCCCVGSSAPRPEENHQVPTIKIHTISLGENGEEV

D(1A) dopamine receptor = D(1A) dopamine receptor (Homo sapiens, UniProt P21728); assay: Compound was evaluated for binding affinity against Dopamine receptor D1 transfected in CHO cell membranes
D(1A) dopamine receptor, sequence (P21728 whole entry): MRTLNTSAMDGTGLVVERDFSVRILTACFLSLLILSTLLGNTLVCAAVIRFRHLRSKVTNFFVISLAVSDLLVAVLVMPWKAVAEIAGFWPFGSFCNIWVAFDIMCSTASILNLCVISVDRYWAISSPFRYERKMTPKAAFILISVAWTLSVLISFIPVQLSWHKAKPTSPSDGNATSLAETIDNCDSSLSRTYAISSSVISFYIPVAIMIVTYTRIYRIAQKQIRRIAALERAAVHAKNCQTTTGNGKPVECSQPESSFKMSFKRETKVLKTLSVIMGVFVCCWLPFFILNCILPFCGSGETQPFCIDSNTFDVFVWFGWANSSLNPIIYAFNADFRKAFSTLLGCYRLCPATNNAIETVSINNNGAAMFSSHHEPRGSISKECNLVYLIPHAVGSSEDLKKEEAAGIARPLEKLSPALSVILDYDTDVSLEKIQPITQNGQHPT

D(4) dopamine receptor [4] = target: T2, D(4) dopamine receptor (Homo sapiens, UniProt P21917); assay: Compound was evaluated for binding affinity against human Dopamine receptor D4 transfected in CHO cell membranes
T2 sequence (P21917 whole entry): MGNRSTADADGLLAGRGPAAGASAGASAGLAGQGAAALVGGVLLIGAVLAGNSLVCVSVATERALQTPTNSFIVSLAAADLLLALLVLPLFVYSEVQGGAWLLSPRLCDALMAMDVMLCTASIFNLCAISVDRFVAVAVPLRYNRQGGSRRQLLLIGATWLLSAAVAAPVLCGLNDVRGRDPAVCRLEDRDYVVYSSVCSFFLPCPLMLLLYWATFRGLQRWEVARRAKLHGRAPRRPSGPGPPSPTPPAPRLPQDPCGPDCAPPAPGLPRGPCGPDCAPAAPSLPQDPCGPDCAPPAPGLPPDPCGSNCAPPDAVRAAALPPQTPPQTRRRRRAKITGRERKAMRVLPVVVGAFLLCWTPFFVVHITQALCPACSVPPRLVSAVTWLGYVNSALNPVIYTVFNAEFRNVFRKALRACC

D(1B) dopamine receptor = D(1B) dopamine receptor (Homo sapiens, UniProt P21918); assay: Compound was evaluated for binding affinity against human Dopamine receptor D5 transfected in CHO cell membranes
D(1B) dopamine receptor, sequence (P21918 whole entry): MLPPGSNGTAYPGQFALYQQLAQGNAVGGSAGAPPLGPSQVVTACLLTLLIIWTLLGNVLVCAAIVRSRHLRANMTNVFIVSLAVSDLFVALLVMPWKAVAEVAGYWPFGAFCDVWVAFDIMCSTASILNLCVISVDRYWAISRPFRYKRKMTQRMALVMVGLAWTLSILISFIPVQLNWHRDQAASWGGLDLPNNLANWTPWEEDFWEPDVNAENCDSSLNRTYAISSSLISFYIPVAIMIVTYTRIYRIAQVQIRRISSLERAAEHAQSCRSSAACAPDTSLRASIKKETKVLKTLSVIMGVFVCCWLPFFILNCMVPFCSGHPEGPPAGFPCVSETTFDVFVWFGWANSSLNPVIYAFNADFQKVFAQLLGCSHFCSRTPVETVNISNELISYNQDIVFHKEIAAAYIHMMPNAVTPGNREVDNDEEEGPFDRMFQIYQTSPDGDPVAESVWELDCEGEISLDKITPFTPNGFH

CHO-hD3 = assay: (§1) Compound was tested for stimulation of mitogenesis in CHO.hD3 cells in a dose dependent manner; type: functional, cell-based; conditions: Cricetulus griseus
D(4) dopamine receptor [5] = target: T2, D(4) dopamine receptor; assay: Affinity against D4 receptor was evaluated
D(3) dopamine receptor = D(3) dopamine receptor (Homo sapiens, UniProt P35462); assay: Compound was evaluated for binding affinity against human Dopamine receptor D3 transfected in CHO cell membranes to stimulate [3H]thymidine uptake
D(3) dopamine receptor, sequence (P35462 whole entry): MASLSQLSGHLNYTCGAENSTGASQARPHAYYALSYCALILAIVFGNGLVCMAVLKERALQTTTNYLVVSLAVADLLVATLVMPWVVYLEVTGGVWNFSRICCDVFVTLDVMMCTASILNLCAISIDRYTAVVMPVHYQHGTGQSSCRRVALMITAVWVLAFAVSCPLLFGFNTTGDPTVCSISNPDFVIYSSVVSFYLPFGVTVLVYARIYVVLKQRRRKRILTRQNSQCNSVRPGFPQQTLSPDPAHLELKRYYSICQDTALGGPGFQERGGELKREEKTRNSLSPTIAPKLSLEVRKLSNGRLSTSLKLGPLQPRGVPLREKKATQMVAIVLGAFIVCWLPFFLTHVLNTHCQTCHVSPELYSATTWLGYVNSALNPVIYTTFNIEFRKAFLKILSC

CHO = assay: as §1; type: functional, cell-based; conditions: Cricetulus griseus

D(2) dopamine receptor (Homo sapiens), sequence (P14416 whole entry): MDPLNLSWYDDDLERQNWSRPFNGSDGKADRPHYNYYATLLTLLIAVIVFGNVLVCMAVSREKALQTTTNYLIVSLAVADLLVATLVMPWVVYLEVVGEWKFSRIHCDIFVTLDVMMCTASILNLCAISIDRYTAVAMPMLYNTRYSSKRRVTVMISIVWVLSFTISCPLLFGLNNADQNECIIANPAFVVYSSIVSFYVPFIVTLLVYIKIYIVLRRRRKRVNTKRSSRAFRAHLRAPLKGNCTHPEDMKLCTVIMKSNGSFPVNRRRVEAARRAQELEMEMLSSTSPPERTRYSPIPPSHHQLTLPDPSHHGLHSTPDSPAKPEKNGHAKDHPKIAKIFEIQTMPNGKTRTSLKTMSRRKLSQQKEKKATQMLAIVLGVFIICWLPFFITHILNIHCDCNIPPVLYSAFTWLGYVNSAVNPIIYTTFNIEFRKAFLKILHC

Compound	Ki [2]	Ki [3]	Ki (D(1A) dopamine receptor)	Ki (D(4) dopamine receptor [4])	Ki (D(1B) dopamine receptor)	IC50 (CHO-hD3)	also measured
CCCCN1CCCC1CNC(=O)c1cc(C#N)c2ccccc2c1OC (stereo unspecified)							Ratio [1]: 10
O=C(NCCCCN1CCN(c2cccc(Cl)c2Cl)CC1)c1ccc2c(c1)Cc1ccccc1-2	223 nM	642 nM	> 10 µM	> 5 µM	> 10 µM	5 nM	
O=C(CCCN1CCC(O)(c2ccc(Cl)cc2)CC1)c1ccc(F)cc1 [HALOPERIDOL]						8.8 nM	
COc1c(C(=O)NCCN2CCN(c3cccc(Cl)c3Cl)CC2)cc(Br)c2ccccc12							Ki (D(4) dopamine receptor [5]): 65 nM
O=C(NCCCCN1CCN(c2cccc(Cl)c2Cl)CC1)c1ccc2c(c1)-c1ccccc1-2	125 nM	547 nM	> 10 µM	> 5 µM	> 10 µM		Ki (D(3) dopamine receptor): 0.9 nM; IC50 (CHO): 6.8 nM
